“And” between values parts separate entries of the source, which are not always exact repeats. Equal entries are not always repeated.
What was measured:
[1] = target: T1, BLK (Homo sapiens, UniProt P51451); experiment: standard kinase inhibition assay performed by Nanosyn; format: biochemical; conditions: [Enzyme] 0.4 nM, [ATP] 20 μM, inc time 1 hr
T1 construct: purchased BPS 40401
Protocol: (§1) The following kinases were assayed according the table 4 below:
(§2) Compounds were tested in singlicates using 12 pt (3×-dilutions) dose response format with top concentration of 10 mM or 1 mM.

[2] = target: T2, LCK (Homo sapiens, UniProt P06239); experiment: as above; format: biochemical; conditions: [Enzyme] 0.4 nM, [ATP] 50 μM, inc time 1 hr
T2 construct: purchased INVITROGEN P3043
T2 sequence (P06239 whole entry): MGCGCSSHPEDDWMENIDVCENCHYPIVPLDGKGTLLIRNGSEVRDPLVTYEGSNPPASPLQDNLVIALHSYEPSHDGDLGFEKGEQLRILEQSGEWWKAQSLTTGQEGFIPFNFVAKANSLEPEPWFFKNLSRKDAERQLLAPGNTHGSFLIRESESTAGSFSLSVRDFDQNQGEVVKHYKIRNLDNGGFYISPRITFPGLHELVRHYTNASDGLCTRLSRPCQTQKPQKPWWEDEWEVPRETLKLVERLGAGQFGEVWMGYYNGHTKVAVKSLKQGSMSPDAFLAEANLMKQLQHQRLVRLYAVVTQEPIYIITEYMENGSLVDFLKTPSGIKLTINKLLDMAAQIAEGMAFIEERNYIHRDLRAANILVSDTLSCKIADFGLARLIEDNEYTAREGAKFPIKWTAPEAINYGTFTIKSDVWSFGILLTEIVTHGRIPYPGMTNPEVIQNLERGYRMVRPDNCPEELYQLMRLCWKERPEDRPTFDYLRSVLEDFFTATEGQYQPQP
Protocol: as §1, §2

[3] = target: T3, BTK (Homo sapiens, UniProt Q06187); experiment: as above; format: biochemical; conditions: [Enzyme] 0.95 nM, [ATP] 20 μM, inc time 1 hr
T3 sequence (Q06187 whole entry): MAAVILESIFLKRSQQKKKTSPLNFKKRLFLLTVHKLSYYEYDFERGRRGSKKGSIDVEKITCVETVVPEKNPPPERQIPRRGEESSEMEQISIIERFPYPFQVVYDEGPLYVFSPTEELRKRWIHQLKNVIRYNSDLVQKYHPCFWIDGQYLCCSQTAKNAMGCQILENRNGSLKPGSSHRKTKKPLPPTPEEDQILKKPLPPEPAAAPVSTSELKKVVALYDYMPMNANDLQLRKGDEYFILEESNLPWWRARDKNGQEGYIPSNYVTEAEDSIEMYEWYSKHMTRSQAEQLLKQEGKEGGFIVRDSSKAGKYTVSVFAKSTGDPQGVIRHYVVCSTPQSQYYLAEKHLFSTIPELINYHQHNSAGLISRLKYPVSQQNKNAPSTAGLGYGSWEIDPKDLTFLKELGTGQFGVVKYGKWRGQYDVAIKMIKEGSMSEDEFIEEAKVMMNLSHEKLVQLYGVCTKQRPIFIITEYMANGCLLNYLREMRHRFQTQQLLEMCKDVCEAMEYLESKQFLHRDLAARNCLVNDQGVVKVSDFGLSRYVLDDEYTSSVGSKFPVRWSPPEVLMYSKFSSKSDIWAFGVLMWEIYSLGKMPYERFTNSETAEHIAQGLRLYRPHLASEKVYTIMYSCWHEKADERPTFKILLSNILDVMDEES
Protocol: as §1, §2

[4] = target: T4, JAK3 (Homo sapiens, UniProt P52333); experiment: as above; format: biochemical; conditions: [Enzyme] 2 nM, [ATP] 2 μM, inc time 3 hr
T4 construct: purchased INVITROGEN PV3855
T4 sequence (P52333 781-1124 limits assumed): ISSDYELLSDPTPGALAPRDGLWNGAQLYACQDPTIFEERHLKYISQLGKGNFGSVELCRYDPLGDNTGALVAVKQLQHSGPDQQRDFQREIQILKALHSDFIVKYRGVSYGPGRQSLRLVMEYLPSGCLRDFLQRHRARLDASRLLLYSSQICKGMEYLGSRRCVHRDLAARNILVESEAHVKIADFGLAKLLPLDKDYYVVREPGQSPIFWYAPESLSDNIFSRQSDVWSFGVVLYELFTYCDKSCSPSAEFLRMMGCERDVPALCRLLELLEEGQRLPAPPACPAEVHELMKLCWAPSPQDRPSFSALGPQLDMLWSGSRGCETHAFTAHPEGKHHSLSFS
Protocol: as §1, §2

[5] = target: T5, TEC (Homo sapiens, UniProt P42680); experiment: as above; format: biochemical; conditions: [Enzyme] 4.6 nM, [ATP] 12 μM, inc time 1 hr
T5 construct: purchased Millipore 14-801
T5 sequence (P42680 1-631): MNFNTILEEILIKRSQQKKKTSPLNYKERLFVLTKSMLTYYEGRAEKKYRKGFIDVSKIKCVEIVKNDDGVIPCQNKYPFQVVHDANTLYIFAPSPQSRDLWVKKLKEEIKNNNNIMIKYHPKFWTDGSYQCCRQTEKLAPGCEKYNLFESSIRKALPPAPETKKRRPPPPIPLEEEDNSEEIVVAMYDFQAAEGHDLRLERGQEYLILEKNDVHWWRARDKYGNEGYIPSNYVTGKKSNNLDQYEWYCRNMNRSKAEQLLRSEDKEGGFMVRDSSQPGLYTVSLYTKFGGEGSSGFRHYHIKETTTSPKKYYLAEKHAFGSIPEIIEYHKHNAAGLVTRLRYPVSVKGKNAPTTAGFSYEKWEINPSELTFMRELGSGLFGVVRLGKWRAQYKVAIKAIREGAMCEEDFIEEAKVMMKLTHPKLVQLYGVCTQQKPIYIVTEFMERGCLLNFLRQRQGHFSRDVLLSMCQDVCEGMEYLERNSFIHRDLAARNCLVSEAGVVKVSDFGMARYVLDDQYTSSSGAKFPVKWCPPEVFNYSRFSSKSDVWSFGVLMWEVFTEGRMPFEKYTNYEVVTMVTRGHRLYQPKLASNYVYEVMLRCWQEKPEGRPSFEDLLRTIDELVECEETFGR
Protocol: as §1, §2

[6] = target: T6, SRC (Homo sapiens, UniProt P12931); experiment: as above; format: biochemical; conditions: [Enzyme] 3 nM, [ATP] 25 μM, inc time 1 hr
T6 construct: purchased INVITROGEN P3044
T6 sequence (P12931 whole entry): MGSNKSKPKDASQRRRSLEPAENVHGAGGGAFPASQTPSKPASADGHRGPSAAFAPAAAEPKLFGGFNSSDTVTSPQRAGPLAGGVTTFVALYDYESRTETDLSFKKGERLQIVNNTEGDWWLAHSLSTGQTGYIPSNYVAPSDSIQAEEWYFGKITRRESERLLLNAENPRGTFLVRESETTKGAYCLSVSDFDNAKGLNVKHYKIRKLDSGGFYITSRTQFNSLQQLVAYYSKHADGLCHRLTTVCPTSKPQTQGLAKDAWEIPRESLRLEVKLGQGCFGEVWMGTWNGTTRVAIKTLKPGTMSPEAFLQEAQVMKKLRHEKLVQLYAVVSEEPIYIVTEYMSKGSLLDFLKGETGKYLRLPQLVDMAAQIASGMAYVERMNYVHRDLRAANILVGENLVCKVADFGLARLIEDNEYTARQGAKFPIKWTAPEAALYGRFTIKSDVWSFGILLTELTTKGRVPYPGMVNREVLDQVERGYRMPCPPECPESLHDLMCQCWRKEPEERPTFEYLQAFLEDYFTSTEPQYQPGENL
Protocol: as §1, §2

[7] = target: T7, BMX (Homo sapiens, UniProt P51813); experiment: as above; format: biochemical; conditions: [Enzyme] 1.82 nM, [ATP] 75 μM, inc time 1 hr
T7 construct: purchased BPS 40402
T7 sequence (P51813 1-675): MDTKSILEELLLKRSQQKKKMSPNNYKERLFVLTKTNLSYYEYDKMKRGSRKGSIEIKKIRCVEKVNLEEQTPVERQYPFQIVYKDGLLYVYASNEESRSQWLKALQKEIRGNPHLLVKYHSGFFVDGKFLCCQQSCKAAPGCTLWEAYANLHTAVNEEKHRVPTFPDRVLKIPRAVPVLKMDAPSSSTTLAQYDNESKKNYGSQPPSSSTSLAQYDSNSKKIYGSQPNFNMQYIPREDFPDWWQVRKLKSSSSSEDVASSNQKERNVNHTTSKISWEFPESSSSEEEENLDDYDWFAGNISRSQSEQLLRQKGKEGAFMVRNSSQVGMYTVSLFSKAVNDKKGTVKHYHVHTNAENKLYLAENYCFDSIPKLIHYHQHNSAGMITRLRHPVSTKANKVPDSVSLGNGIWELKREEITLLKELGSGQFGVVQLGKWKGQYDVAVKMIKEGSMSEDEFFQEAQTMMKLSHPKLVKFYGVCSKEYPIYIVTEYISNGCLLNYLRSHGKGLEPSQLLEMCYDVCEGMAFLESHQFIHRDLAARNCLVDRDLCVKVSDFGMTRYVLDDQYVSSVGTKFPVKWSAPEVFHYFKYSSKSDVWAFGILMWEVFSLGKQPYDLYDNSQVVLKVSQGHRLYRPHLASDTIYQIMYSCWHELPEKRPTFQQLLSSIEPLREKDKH
Protocol: as §1, §2

[8] = target: T8, ITK (Homo sapiens, UniProt Q08881); experiment: as above; format: biochemical; conditions: [Enzyme] 1 nM, [ATP] 50 μM, inc time 3 hr
T8 construct: endogenous in cells; host or cells: Jurkat cell lysate
T8 sequence (Q08881 1-620): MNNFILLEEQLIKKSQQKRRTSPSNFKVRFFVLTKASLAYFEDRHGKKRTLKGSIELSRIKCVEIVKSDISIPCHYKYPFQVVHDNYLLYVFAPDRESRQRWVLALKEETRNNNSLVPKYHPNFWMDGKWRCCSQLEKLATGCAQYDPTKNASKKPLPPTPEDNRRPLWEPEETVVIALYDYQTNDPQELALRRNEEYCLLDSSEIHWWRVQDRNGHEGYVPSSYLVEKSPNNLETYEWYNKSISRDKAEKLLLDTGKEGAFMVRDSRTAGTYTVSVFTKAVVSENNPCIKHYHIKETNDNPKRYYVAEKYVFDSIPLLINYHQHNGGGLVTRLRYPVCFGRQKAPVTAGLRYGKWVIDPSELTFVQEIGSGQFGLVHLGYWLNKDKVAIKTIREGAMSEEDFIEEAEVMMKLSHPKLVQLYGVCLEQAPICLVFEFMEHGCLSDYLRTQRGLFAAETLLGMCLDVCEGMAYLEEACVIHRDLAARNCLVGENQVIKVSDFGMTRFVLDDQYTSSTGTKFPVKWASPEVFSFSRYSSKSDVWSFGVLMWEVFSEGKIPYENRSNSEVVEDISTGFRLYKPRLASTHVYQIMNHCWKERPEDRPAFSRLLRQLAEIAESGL
Protocol: as §1, §2

[9] = target: T3, BTK; experiment: Comparison of biotinylated probes, streptavidin coated plate BTK occupancy assay; format: binding; parameters: Positive Control lysates from BTK expressing cell line (DOHH2); endogenous in cells; host or cells: DOHH2 cell lysate; conditions: DOHH2 lysate, high and low probe concentrations
Protocol: Selected biotinylated probes were tested for use in target occupancy assays using either the anti-protein antibody coated plate or streptavidin coated plate assay formats. The following probes were tested:
Stock solutions (5 mM and 10 mM) of the probes were prepared as follows. […] For the assays 50× probe was prepared fresh the day of the assay: 1 μl of 5 mM probe to […] PBS.
1) Dilute lysate to desired concentration with PBS to final volume of 500 μl
2) Add Biotinylated probe (final concentration 2.5 μM) to lysate, 37 C for 1 hr
3) Block streptavidin plate w/ 1% BSA, RT, 1 hr, wash w/ PBST 3×
4) Stop reaction by transfer samples onto ice for 10 min, then bring back to RT
5) Add 100 ul treated lysate (in triplicate) to streptavidin plate, RT, 2 hr w/ rocking
6) Wash with 200 μl PBST, 5×
7) Add 100 μl 2nd Ab-HRP, incubate at RT for 1 hr
8) Wash with 200 μl PBST, 3×
9) Add 100 μl TMB, incubate at RT for 10 min
10) Add 50 μl stop solution

T1 sequence (P51451 whole entry): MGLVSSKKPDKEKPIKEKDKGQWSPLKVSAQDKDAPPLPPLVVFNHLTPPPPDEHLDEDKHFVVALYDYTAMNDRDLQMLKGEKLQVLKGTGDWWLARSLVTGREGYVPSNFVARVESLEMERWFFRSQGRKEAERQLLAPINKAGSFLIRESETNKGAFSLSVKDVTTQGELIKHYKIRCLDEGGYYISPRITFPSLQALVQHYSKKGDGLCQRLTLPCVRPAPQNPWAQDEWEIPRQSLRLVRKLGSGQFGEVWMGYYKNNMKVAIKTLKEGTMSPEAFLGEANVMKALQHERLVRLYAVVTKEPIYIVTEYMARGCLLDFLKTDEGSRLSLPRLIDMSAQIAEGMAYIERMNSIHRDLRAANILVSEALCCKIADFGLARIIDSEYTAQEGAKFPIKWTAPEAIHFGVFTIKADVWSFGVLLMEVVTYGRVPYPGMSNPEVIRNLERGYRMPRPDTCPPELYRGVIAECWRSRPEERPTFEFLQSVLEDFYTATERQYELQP

IC50 [1]: 4.27 nM and 3.66 nM | IC50 [2]: 6.92 nM and 5.99 nM | IC50 [3]: 1.02 nM and 0.755 nM | IC50 [4]: 4870 nM and 5340 nM | IC50 [5]: 2.29 nM and 1.71 nM | IC50 [6]: 36.3 nM and 33.8 nM | IC50 [7]: 5.57 nM and 4.42 nM | IC50 [8]: 198 nM and 187 nM | signal for binding to BTK out of the probes tested [9]: highest signal
Compound: CN(C/C=C/C(=O)N1CCC[C@@H](n2nc(-c3ccc(Oc4ccccc4)cc3)c3c(N)ncnc32)C1)CCCCNC(=O)CCCC(=O)NCCCOCCOCCOCCCNC(=O)CCCC[C@@H]1SC[C@@H]2NC(=O)N[C@@H]21 [Compound I-5]

From US20150260723A1, “COMPANION DIAGNOSTICS FOR TEC FAMILY KINASE INHIBITOR THERAPY” (PHARMACYCLICS, INC., priority 2012, published 2015)
